Measurements as given in PubChem BioAssay (NCI).
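Abbreviation: GI50, concentration required for 50% inhibition of growth. TGI marks complete inhibition of growth.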

Key:
Experiment in all cases: NCI tumour cell line growth inhibition, 384-well format
786-0 renal = system: 786-0 renal
A498 renal = system: A498 renal
A549 NSCLC = system: A549 NSCLC
ACHN renal = system: ACHN renal
BT-549 breast = system: BT-549 breast
CAKI-1 renal = system: CAKI-1 renal
CCRF-CEM leukemia = system: CCRF-CEM leukemia
COLO 205 colon = system: COLO 205 colon
DU-145 prostate = system: DU-145 prostate
EKVX NSCLC = system: EKVX NSCLC
HCC-2998 colon = system: HCC-2998 colon
HCT-116 colon = system: HCT-116 colon
HCT-15 colon = system: HCT-15 colon
HL-60(TB) leukemia = system: HL-60(TB) leukemia
HOP-62 NSCLC = system: HOP-62 NSCLC
HOP-92 NSCLC = system: HOP-92 NSCLC
HS 578T breast = system: HS 578T breast
HT29 colon = system: HT29 colon
IGROV1 ovarian = system: IGROV1 ovarian
K-562 leukemia = system: K-562 leukemia
KM12 colon = system: KM12 colon
LOX IMVI melanoma = system: LOX IMVI melanoma
M14 melanoma = system: M14 melanoma
MALME-3M melanoma = system: MALME-3M melanoma
MCF7 breast = system: MCF7 breast
MDA-MB-231 breast = system: MDA-MB-231 breast
MDA-MB-435 melanoma = system: MDA-MB-435 melanoma
MDA-MB-468 breast = system: MDA-MB-468 breast
MOLT-4 leukemia = system: MOLT-4 leukemia

## C1=C/COCc2cc(ccc2OCCN2CCCC2)Nc2nccc(n2)-c2ccc(o2)COC/1
786-0 renal
  GI50: 1.52 µM
  TGI: 4.97 µM
A498 renal
  GI50: 0.71 µM
  TGI: 4.22 µM
A549 NSCLC
  GI50: 1.25 µM
  TGI: 4.06 µM
ACHN renal
  GI50: 0.672 µM
  TGI: 11.4 µM
BT-549 breast
  GI50: 1.72 µM
  TGI: 3.21 µM
CAKI-1 renal
  GI50: 0.452 µM
  TGI: 2.34 µM
CCRF-CEM leukemia
  GI50: 1.53 µM
  TGI: 2.92 µM
COLO 205 colon
  GI50: 1.48 µM
  TGI: 3.92 µM
DU-145 prostate
  GI50: 1.56 µM
  TGI: 10.5 µM
EKVX NSCLC
  GI50: 1.49 µM
  TGI: 3.37 µM
HCC-2998 colon
  GI50: 1.27 µM
  TGI: 2.83 µM
HCT-116 colon
  GI50: 0.852 µM
  TGI: 10.4 µM
HCT-15 colon
  GI50: 0.95 µM
  TGI: 3.23 µM
HL-60(TB) leukemia
  GI50: 0.479 µM
  TGI: 1.68 µM
HOP-62 NSCLC
  GI50: 1.2 µM
  TGI: 2.96 µM
HOP-92 NSCLC
  GI50: 1.57 µM
  TGI: 5.46 µM
HS 578T breast
  GI50: 1.54 µM
  TGI: 2.97 µM
HT29 colon
  GI50: 1.29 µM
  TGI: 2.82 µM
IGROV1 ovarian
  GI50: 0.433 µM
  TGI: 1.9 µM
K-562 leukemia
  GI50: 1.39 µM
  TGI: 4.12 µM
KM12 colon
  GI50: 0.325 µM
  TGI: 1.92 µM
LOX IMVI melanoma
  GI50: 0.892 µM
  TGI: 2.18 µM
M14 melanoma
  GI50: 0.838 µM
  TGI: 3.05 µM
MALME-3M melanoma
  GI50: 1.06 µM
  TGI: 2.27 µM
MCF7 breast
  GI50: 0.563 µM
  TGI: 1.98 µM
MDA-MB-231 breast
  GI50: 1.84 µM
  TGI: 9.87 µM
MDA-MB-435 melanoma
  GI50: 1.47 µM
  TGI: 4.09 µM
MDA-MB-468 breast
  GI50: 1.14 µM
  TGI: 2.37 µM
MOLT-4 leukemia
  GI50: 1.02 µM
  TGI: 2.19 µM
